This is an account of results in patent US5456923A, “Method of manufacturing solid dispersion” (priority 1991, dated 1995).

≈ marks a conversion by molar mass, not a printed value. Structures can show the parent of a compound that is named as a salt.

A short description of the data set: physchem. The conditions noted are these: jp test solution 2.

A word on the solubility: it is the concentration that dissolves in the medium under given conditions. Lower therefore signals little dissolved substance.

Procedure: Test method: Saturation dissolution method
Test conditions: Constanttemperature bath (25° C.)
Ultracentrifugation: 40000 rpm × 1 hr; the supernatant analyzed by

The compound `COC(=O)C1=C(C)NC(C)=C(P2(=O)OCCCO2)C1c1ccccc1[N+](=O)[O-]` (centres unmarked) [Compound A, methyl 2,6-dimethyl-4-(2-nitrophenyl)-5-(2-oxo-1,3,2-dioxaphosphorinan-2-yl)-1,4-dihydropyridine-3-carboxylate] gave a solubility at 24 h of 36.5 µg/mL (≈ 89.4 µM).

`COC(=O)C1=C(C)NC(C)=C(C(=O)OCCN(C)Cc2ccccc2)C1c1cccc([N+](=O)[O-])c1` (centres unmarked) [nicardipine hydrochloride]: the solubility at 24 h is 8.5 µg/mL.
